Values quoted from earlier work in PubChem BioAssay AID1259409 (Chemical Carcinogenesis Research Information System (CCRIS), 2018).

System: rodent chemically induced tumor inhibition, incidence and multiplicity
Assay: CCRIS tumor inhibitor studies

In the case of `CC[C@H](C)C(=O)O[C@H]1C[C@@H](C)C=C2C=C[C@H](C)[C@H](CC[C@@H]3C[C@@H](O)CC(=O)O3)[C@H]21`, the “tumour outcome (control, treated, inhibition, significance)” value (Carcinogen: 4-(N-METHYL-N-NITROSAMINO)-1-(3-PYRIDYL)-1-BUTANONE, 64091-91-4, Dose [Inhibitor]: 0, 40 PPM IN THE DIET FOR 6 MO BEGINNING 1 WK POST CARCINOGEN DOSE (STUDY DURATION: 6 MO), Route [Inhibitor]: ORAL, Species: MOUSE, Strain/Sex: STRAIN-A/MALE, Target Tissue: Type of Lesion: LUNG: TUMOR, Dose [Carcinogen]: 10 UMOL ONCE, Promoter: NONE USED) is given as 15/15 (100%), 15/15 (100%), 0%, not significant, the “tumour outcome (control, treated, inhibition, significance)” value (Carcinogen: 4-(N-METHYL-N-NITROSAMINO)-1-(3-PYRIDYL)-1-BUTANONE, 64091-91-4, Dose [Inhibitor]: 0, 160 PPM IN THE DIET FOR 6 MO BEGINNING 1 WK POST CARCINOGEN DOSE (STUDY DURATION: 6 MO), Route [Inhibitor]: ORAL, Species: MOUSE, Strain/Sex: STRAIN-A/MALE, Target Tissue: Type of Lesion: LUNG: TUMOR, Dose [Carcinogen]: 10 UMOL ONCE, Promoter: NONE USED) is given as 15/15 (100%), 15/15 (100%), 0%, not significant and the “tumour outcome (control, treated, inhibition, significance)” value (Carcinogen: 4-(N-METHYL-N-NITROSAMINO)-1-(3-PYRIDYL)-1-BUTANONE, 64091-91-4, Dose [Inhibitor]: 0, 400 PPM IN THE DIET FOR 6 MO BEGINNING 1 WK POST CARCINOGEN DOSE (STUDY DURATION: 6 MO), Route [Inhibitor]: ORAL, Species: MOUSE, Strain/Sex: STRAIN-A/MALE, Target Tissue: Type of Lesion: LUNG: TUMOR, Dose [Carcinogen]: 10 UMOL ONCE, Promoter: NONE USED) is given as 15/15 (100%), 12/14 (86%), 14%, not significant.
For `CCCCC(CC)COC(=O)c1ccccc1C(=O)OCC(CC)CCCC` (configuration not stated), the “tumour outcome (control, treated, inhibition, significance)” value (Carcinogen: N-NITROSOBIS(2-HYDROXYPROPYL)AMINE, 53609-64-6, Dose [Inhibitor]: 0, 1.2% IN DIET FOR 30 WK BEGINNING POST CARCINOGEN TREATMENT (STUDY DURATION: 35 WK), Route [Inhibitor]: ORAL, Species: HAMSTER, Strain/Sex: SYRIAN/MALE, Target Tissue: Type of Lesion: PANCREAS: ADENOCARCINOMA, Dose [Carcinogen]: 500 MG/KG 1/WK FOR 5 WK, Promoter: NONE USED) is given as 8/17 (47%), 7/19 (37%), 21%, not significant.
In the case of `NCCCCNCCCN`, the “tumour outcome (control, treated, inhibition, significance)” value (Carcinogen: TRANS-5-AMINO-3-[2-(5-NITRO-2-FURYL)VINYL]-1,2,4-OXADIAZOLE;SQL8506, 28754-68-9, Carcinogen: TRANS-5-AMINO-3-[2-(5-NITRO-2-FURYL)VINYL]-1,2,4-OXADIAZOLE;SQL8506, 28754-68-9, Dose [Inhibitor]: 150 MG/KG 16 HR BEFORE THE 1ST CARCINOGEN DOSE FOLLOWED BY ADDITIONAL DOSES IMMEDIATELY BEFORE EACH DOSE OF CARCINOGEN (, Route [Inhibitor]: INTRAPERITONEAL, Species: MOUSE, Strain/Sex: CD-1/FEMALE, Target Tissue: Type of Lesion: HEMATOPOIETIC SYSTEM: MYELOID LEUKEMIA, Dose [Carcinogen]: 1 G/KG 2/D FOR 5 D EVERY 4 WK FOR 3 COURSES OF TREATMENT, Promoter: NONE USED) is listed as 7/137 (5%), 2/31 (6%), -20%, not calculated, the “tumour outcome (control, treated, inhibition, significance)” value (Carcinogen: TRANS-5-AMINO-3-[2-(5-NITRO-2-FURYL)VINYL]-1,2,4-OXADIAZOLE;SQL8506, 28754-68-9, Carcinogen: TRANS-5-AMINO-3-[2-(5-NITRO-2-FURYL)VINYL]-1,2,4-OXADIAZOLE;SQL8506, 28754-68-9, Dose [Inhibitor]: 150 MG/KG 16 HR BEFORE THE 1ST CARCINOGEN DOSE FOLLOWED BY ADDITIONAL DOSES IMMEDIATELY BEFORE EACH DOSE OF CARCINOGEN (, Route [Inhibitor]: INTRAPERITONEAL, Species: MOUSE, Strain/Sex: CD-1/FEMALE, Target Tissue: Type of Lesion: LYMPHOID TISSUE: NONTHYMIC LYMPHOMA, Dose [Carcinogen]: 1 G/KG 2/D FOR 5 D EVERY 4 WK FOR 3 COURSES OF TREATMENT, Promoter: NONE USED) is listed as 8/137 (6%), 1/31 (3%), 50%, not calculated and the “tumour outcome (control, treated, inhibition, significance)” value (Carcinogen: TRANS-5-AMINO-3-[2-(5-NITRO-2-FURYL)VINYL]-1,2,4-OXADIAZOLE;SQL8506, 28754-68-9, Carcinogen: TRANS-5-AMINO-3-[2-(5-NITRO-2-FURYL)VINYL]-1,2,4-OXADIAZOLE;SQL8506, 28754-68-9, Dose [Inhibitor]: 150 MG/KG 16 HR BEFORE THE 1ST CARCINOGEN DOSE FOLLOWED BY ADDITIONAL DOSES IMMEDIATELY BEFORE EACH DOSE OF CARCINOGEN (, Route [Inhibitor]: INTRAPERITONEAL, Species: MOUSE, Strain/Sex: CD-1/FEMALE, Target Tissue: Type of Lesion: LYMPHOID TISSUE: THYMIC LYMPHOMA, Dose [Carcinogen]: 1 G/KG 2/D FOR 5 D EVERY 4 WK FOR 3 COURSES OF TREATMENT, Promoter: NONE USED) is listed as 22/137 (16%), 4/31 (13%), 19%, not calculated. For the same molecule, the “tumour outcome (control, treated, inhibition, significance)” value (Carcinogen: TRANS-5-AMINO-3-[2-(5-NITRO-2-FURYL)VINYL]-1,2,4-OXADIAZOLE;SQL8506, 28754-68-9, Carcinogen: TRANS-5-AMINO-3-[2-(5-NITRO-2-FURYL)VINYL]-1,2,4-OXADIAZOLE;SQL8506, 28754-68-9, Dose [Inhibitor]: 150 MG/KG 16 HR BEFORE THE 1ST CARCINOGEN DOSE FOLLOWED BY ADDITIONAL DOSES IMMEDIATELY BEFORE EACH DOSE OF CARCINOGEN (, Route [Inhibitor]: INTRAPERITONEAL, Species: MOUSE, Strain/Sex: CD-1/FEMALE, Target Tissue: Type of Lesion: STOMACH: SQUAMOUS SARCOMA, Dose [Carcinogen]: 1 G/KG 2/D FOR 5 D EVERY 4 WK FOR 3 COURSES OF TREATMENT, Promoter: NONE USED) was 60/137 (44%), 7/31 (23%), 48%, not calculated.
For `CC(C)NCC(O)COc1cccc2ccccc12` (configuration not stated), the “tumour outcome (control, treated, inhibition, significance)” value (Carcinogen: 4-(METHYLNITROSAMINO)-1-(3-PYRIDYL)-1-BUTANONE [64091-91-4], Dose [Inhibitor]: 3 MG/KG BW 3X/WK FOR 20 WK IMMEDIATELY PRIOR TO EACH CARCINOGEN DOSE (STUDY DURATION: 52 WK), Route [Inhibitor]: SUBCUTANEOUS, Species: HAMSTER, Strain/Sex: SYRIAN/MALE, Target Tissue: Type of Lesion: LUNG: TUMOR, Dose [Carcinogen]: 10 MG/KG BW 3X/WK FOR 20 WK (STUDY DURATION: 52 WK), Promoter: NONE) is listed as 12/15 (80.0%), 6/15 (40%), 50%, not calculated, the “tumour outcome (control, treated, inhibition, significance)” value (Carcinogen: 4-(METHYLNITROSAMINO)-1-(3-PYRIDYL)-1-BUTANONE [64091-91-4], Dose [Inhibitor]: 3 MG/KG BW 3X/WK FOR 20 WK IMMEDIATELY PRIOR TO EACH CARCINOGEN DOSE (STUDY DURATION: 52 WK), Route [Inhibitor]: SUBCUTANEOUS, Species: HAMSTER, Strain/Sex: SYRIAN/MALE, Target Tissue: Type of Lesion: NASAL CAVITY: TUMOR, Dose [Carcinogen]: 10 MG/KG BW 3X/WK FOR 20 WK (STUDY DURATION: 52 WK), Promoter: NONE) is listed as 4/15 (26.7%), 4/15 (26.7%), 0%, not calculated and the outcome (Carcinogen: 4-(Methylnitrosamino)-1-(3-pyridyl)-1-butanone, Dose [Inhibitor]: 0.3 mg/100 g bw, 5 x a wk from offspring age of 4 wks-8 mo., Route [Inhibitor]: Subcutaneous injection, Species: Hamster, Strain/Sex: Syrian golden, male and female offspring, Target Tissue: Type of Lesion: Pancreas: Tumor (in offspring), Dose [Carcinogen]: 50 mg/kg once to dams on day 15 of pregnancy, Promoter: Ethanol) is listed as 66.6%, 8.3%. For the same molecule, the “tumour outcome (control, treated, inhibition, significance)” value (Carcinogen: N-METHYL-N'-NITRO-N-NITROSOGUANIDINE, 70-25-7, Dose [Inhibitor]: 0, 5 MG/KG IN OLIVE OIL SUSPENSION 1/D BEGINNING 1 WK POST LAST CARCINOGEN DOSE AND CONTINUING FOR DURATION OF STUDY (ST, Species: RAT, Strain/Sex: WISTAR/MALE, Target Tissue: Type of Lesion: GLANDULAR STOMACH: ADENOCARCINOMA, Dose [Carcinogen]: 50 UG/ML IN DRINKING WATER FOR 25 WK, Promoter: NONE USED) was 15/18 (83%), 11/20 (55%), 34%, not calculated.
